The results in this text go back to patent US20230312587A1, “PTERIDINONE COMPOUNDS AND USES THEREOF” (Vertex Pharmaceutical Incorporated, priority 2018, published 2023).

By IC50 is commonly meant the point on the concentration scale where inhibition reaches its midpoint.

Test [1] concerns β-catenin-TCF-mediated reporter transcription activity in Colo 205 cells. The test can be described thus: Colo 205 reporter assay (TCF/LEF luciferase). It is filed as cell-based. As to conditions: Colo 205 TCF/LEF luciferase reporter, five hours after addition of compound, read-out: TCF reporter Colo205 IC50. The method, boiled down:
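Luciferase signal from a TCF/LEF-driven reporter, stably integrated in Colo 205 colon cancer cells, was measured 5 h after compound addition.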

For test [2], the system named is Colo205-TCF/LEF-Luciferase (Luc) tumor. The test can be described thus: In vivo inhibition of TCF/LEF reporter activity in Colo-205 tumors. Also noted: concentration or dose not given beside the values. As to conditions: TCF/LEF luciferase reporter in Colo-205 tumors, nu/nu mice, oral gavage. The method, then: Colo205-TCF/LEF-Luciferase (Luc) tumor cells were expanded in complete DMEM cell culture media [DMEM (Life Technologies, product #11960-051) media supplemented with 10% FBS (Hyclone, catalog #SH30071.03), antimycotic/antibiotic (Life Technologies, product #15240-062), and Glutamax (Life Technologies, product #35050-061)] with 1 ug/ml puromycin. After reaching confluency/high density, the loosely attached cells in media were transferred from the flask to 50 ml conical tubes. Tumor cells adhered to plastic were detached with trypsin and combined with cells in the conical tubes. The tumor cells were triturated, counted, and pelleted by centrifugation. Cell pellets were resuspended in 0.9% injectable saline (6×10^7 cells/ml). A 50 ul volume (3×10^6 cells) was injected subcutaneously in the flanks of 4-6 wk old female nu/nu mice (Charles River Laboratories). Approximately 13-16 days after implantation, tumors between 200-500 mm^3 were selected (based on caliper measurements and applying the formula […]) and randomized into groups of n=4. Mice were dosed by oral gavage with compound dissolved in 1:3:5:1 EtOH:DMSO:PEG-400:H2O at a rate of 10 ml/kg or 1:3:5:1 EtOH:DMSO:PEG-400:H2O alone (Vehicle Control). Tumors were collected from mice euthanized by CO2 inhalation and snap frozen in liquid nitrogen. Tumors were stored in a −80 degrees C. freezer until they were processed.
Tumors were thawed on ice and homogenized in cold Lysis Buffer (20 mM Tris-HCl (pH 7.5), 150 mM NaCl, 1 mM Na2EDTA, 1 mM EGTA, 1% Triton, 2.5 mM sodium pyrophosphate, 1 mM beta-glycerophosphate, 1 mM Na3VO4, 1 μg/ml leupeptin, 0.05% SDS) using a closed tissue grinder system (Fisher Scientific, Cat #02-542-09) on ice according to manufacturer's instructions. For 100 mg of tumor, 500 uL of Lysis Buffer was used. Tumor lysate was transferred to a pre-chilled microcentrifuge tube and centrifuged at 10,000×g for 10 minutes at 4 degrees C. Supernatant was transferred to a new pre-chilled microcentrifuge tube and was used immediately for analysis of protein content and luciferase activity.
Protein content of tumor lysate supernatant was determined using the BCA assay (Life Technologies Cat #23225). Luciferase activity of tumor lysate supernatant was determined by addition of Steady-Glo luminescence reagent (Promega, Cat #E2550) according to manufacturer's instructions and measurement on a Pherastar luminescence plate reader (BMG Labtech). Luciferase activity was normalized to protein content.
For orientation: Reporter assays use an easily measured gene product as a stand-in for the process of interest.

Like-named read-outs stand apart in the source and are kept apart here. A value given as a limit tells only on which side of the number the result lay.

As to `Cc1nc(N[C@H]2C[C@@H](Nc3cnc(C#N)cn3)C2)nc2c1NC(=O)[C@H](C(C)C)N2C` [Compound 602, 5-((cis-3-(((S)-7-isopropyl-4,8-dimethyl-6-oxo-5,6,7,8-tetrahydropteridin-2-yl)amino)cyclobutyl)amino)pyrazine-2-carbonitrile], in test [1] (Homo sapiens, COLO 205, 5 h), the IC50 lay in the range of 300 to 1000 nM. Also, the “Percent Remaining Activity at 8 hrs after Dosing” value (“Percent Remaining Activity” for short) in test [2] amounted to 57%.

Consider `Cc1nc(NCc2cnn(Cc3cnc(C(C)C)o3)c2)nc2c1NC(=O)[C@H](C(C)C)N2C` [Compound 517, (S)-7-isopropyl-2-(((1-((2-isopropyloxazol-5-yl)methyl)-1H-pyrazol-4-yl)methyl)amino)-4,8-dimethyl-7,8-dihydropteridin-6(5H)-one], for which the 50% inhibitory concentration (IC50) in test [1] (Homo sapiens, COLO 205, 5 h) is less than 300 nM. In addition, the “Percent Remaining Activity” value in test [2] was 93%.

In the case of `COc1c(F)cc(Cn2cc(CNc3nc(C)c4c(n3)N(C)[C@@H](C(C)C)C(=O)N4)cn2)cc1F` [Compound 450, (S)-2-(((1-(3,5-difluoro-4-methoxybenzyl)-1H-pyrazol-4-yl)methyl)amino)-7-isopropyl-4,8-dimethyl-7,8-dihydropteridin-6(5H)-one], the IC50 in test [1] (Homo sapiens, COLO 205, 5 h) is less than 300 nM. Also, the “Percent Remaining Activity” value in test [2] was 32%.

Take `CO[C@H](C)[C@H]1C(=O)Nc2c(C)nc(NCc3cnn(Cc4ccc(OC(F)(F)F)nc4)c3)nc2N1C` [Compound 565, (S)-7-((R)-1-methoxyethyl)-4,8-dimethyl-2-(((1-((6-(trifluoromethoxy)pyridin-3-yl)methyl)-1H-pyrazol-4-yl)methyl)amino)-7,8-dihydropteridin-6(5H)-one]: in test [1] (Homo sapiens, COLO 205, 5 h), the IC50 was less than 300 nM. In addition, the “Percent Remaining Activity” value in test [2] was 68%.

Turning to `Cc1nc(NCc2cnn(Cc3ccc(C(F)(F)F)nc3)c2)nc2c1N(C)C(=O)[C@H](CCO)N2C` [Compound 443, (7S)-7-(2-hydroxyethyl)-4,5,8-trimethyl-2-(((1-((6-(trifluoromethyl)pyridin-3-yl)methyl)-1H-pyrazol-4-yl)methyl)amino)-7,8-dihydropteridin-6(5H)-one], the IC50 in test [1] (Homo sapiens, COLO 205, 5 h) lay within 300 to 1000 nM. Moreover, in test [2], the “Percent Remaining Activity” value was determined as 100%.

As for `COc1c(F)cc(C(=O)N2CC(Nc3nc(C)c4c(n3)N(C)[C@@H](C(C)C)C(=O)N4)C2)cc1F` [Compound 542, (S)-2-((1-(3,5-difluoro-4-methoxybenzoyl)azetidin-3-yl)amino)-7-isopropyl-4,8-dimethyl-7,8-dihydropteridin-6(5H)-one], in test [1] (Homo sapiens, COLO 205, 5 h), the IC50 is less than 300 nM. In addition, in test [2], the “Percent Remaining Activity” value came out at 22%.

On to `Cc1nc(NC2CN(C(=O)c3ccc(Cl)nc3)C2)nc2c1NC(=O)[C@H](C(C)C)N2C` [Compound 549, (S)-2-((1-(6-chloronicotinoyl)azetidin-3-yl)amino)-7-isopropyl-4,8-dimethyl-7,8-dihydropteridin-6(5H)-one], for which the half-inhibitory concentration (IC50) in test [1] (Homo sapiens, COLO 205, 5 h) fell in the range of 1000 to 5000 nM. Moreover, in test [2], the “Percent Remaining Activity” value is listed as 30%.

As for `Cc1nc(NCc2cnn(Cc3ccc(F)cc3C#N)c2)nc2c1N(C)C(=O)[C@H](C)N2C` [Compound 63, (7S)-5-fluoro-2-((4-(((4,5,7,8-tetramethyl-6-oxo-5,6,7,8-tetrahydropteridin-2-yl)amino)methyl)-1H-pyrazol-1-yl)methyl)benzonitrile], the IC50 in test [1] (Homo sapiens, COLO 205, 5 h) was less than 300 nM. Moreover, the “Percent Remaining Activity” value in test [2] is 9%.

On to `Cc1nc(N[C@H]2C[C@@H](Nc3ccc(C(F)(F)F)nn3)C2)nc2c1NC(=O)[C@H](C(C)C)N2C` [Compound 556, (S)-7-isopropyl-4,8-dimethyl-2-((cis-3-((6-(trifluoromethyl)pyridazin-3-yl)amino)cyclobutyl)amino)-7,8-dihydropteridin-6(5H)-one], for which the IC50 in test [1] (Homo sapiens, COLO 205, 5 h) was less than 300 nM. Besides, in test [2], the “Percent Remaining Activity” value stood at 62%.

On to `Cc1nc(NCc2cnn(Cc3ccnc(C(F)(F)F)c3)c2)nc2c1NC(=O)[C@H](C(C)C)N2C` [Compound 447, (S)-7-isopropyl-4,8-dimethyl-2-(((1-((2-(trifluoromethyl)pyridin-4-yl)methyl)-1H-pyrazol-4-yl)methyl)amino)-7,8-dihydropteridin-6(5H)-one], for which the 50% inhibitory concentration (IC50) in test [1] (Homo sapiens, COLO 205, 5 h) was less than 300 nM. For the same compound, the “Percent Remaining Activity” value in test [2] amounted to 76%.

Turning to `CO[C@H](C)[C@H]1C(=O)Nc2c(C)nc(NCc3cnn(Cc4ccc(F)cc4)c3)nc2N1C` [Compound 658, (S)-2-(((1-(4-fluorobenzyl)-1H-pyrazol-4-yl)methyl)amino)-7-((R)-1-methoxyethyl)-4,8-dimethyl-7,8-dihydropteridin-6(5H)-one], in test [1] (Homo sapiens, COLO 205, 5 h), the IC50 was less than 300 nM. For the same compound, the “Percent Remaining Activity” value in test [2] is 62%.

Consider `Cc1nc(N[C@H]2C[C@@H](Nc3cc(C(F)(F)F)ncn3)C2)nc2c1NC(=O)[C@H](C(C)C)N2C` [Compound 528, (S)-7-isopropyl-4,8-dimethyl-2-((cis-3-((6-(trifluoromethyl)pyrimidin-4-yl)amino)cyclobutyl)amino)-7,8-dihydropteridin-6(5H)-one], for which, in test [1] (Homo sapiens, COLO 205, 5 h), the IC50 was less than 300 nM. In addition, the “Percent Remaining Activity” value in test [2] was determined as 28%.

For `Cc1nc(NCc2cnn(Cc3ccc(C#N)nc3)c2)nc2c1NC(=O)[C@H](C(C)C)N2C` [Compound 431, (7S)-5-((4-(((7-isopropyl-4,8-dimethyl-6-oxo-5,6,7,8-tetrahydropteridin-2-yl)amino)methyl)-1H-pyrazol-1-yl)methyl)picolinonitrile], the IC50 in test [1] (Homo sapiens, COLO 205, 5 h) was less than 300 nM. Besides, the “Percent Remaining Activity” value in test [2] turned out to be 29%.

In the case of `Cc1nc(NCc2cnn(Cc3ccc(C(C)(F)F)nc3)c2)nc2c1NC(=O)[C@H](C(C)C)N2C` [Compound 511, (S)-2-(((1-((6-(1,1-difluoroethyl)pyridin-3-yl)methyl)-1H-pyrazol-4-yl)methyl)amino)-7-isopropyl-4,8-dimethyl-7,8-dihydropteridin-6(5H)-one], the IC50 in test [1] (Homo sapiens, COLO 205, 5 h) is less than 300 nM. The “Percent Remaining Activity” value in test [2] is reported as 52%.

Consider `Cc1nc(NCc2cnn(Cc3ccc(OC(C)C)nc3)c2)nc2c1NC(=O)[C@H](C)N2C` [Compound 135, (7S)-2-(((1-((6-isopropoxypyridin-3-yl)methyl)-1H-pyrazol-4-yl)methyl)amino)-4,7,8-trimethyl-7,8-dihydropteridin-6(5H)-one], for which, in test [1] (Homo sapiens, COLO 205, 5 h), the IC50 is less than 300 nM. In addition, in test [2], the “Percent Remaining Activity” value turned out to be 43%.

With `Cc1nc(N[C@@H]2CCc3nn(Cc4ccc(C(F)(F)F)nc4)cc32)nc2c1NC(=O)[C@H](C(C)C)N2C` [Compound 522, (S)-7-isopropyl-4,8-dimethyl-2-(((R)-2-((6-(trifluoromethyl)pyridin-3-yl)methyl)-2,4,5,6-tetrahydrocyclopenta[c]pyrazol-4-yl)amino)-7,8-dihydropteridin-6(5H)-one], in test [1] (Homo sapiens, COLO 205, 5 h), the IC50 is less than 300 nM. Moreover, the “Percent Remaining Activity” value in test [2] stood at 91%.

On to `CO[C@H](C)[C@H]1C(=O)Nc2c(C)nc(NCc3cnn(Cc4cc(C(F)(F)F)nn4C)c3)nc2N1C` [Compound 656, (S)-7-((R)-1-methoxyethyl)-4,8-dimethyl-2-(((1-((1-methyl-3-(trifluoromethyl)-1H-pyrazol-5-yl)methyl)-1H-pyrazol-4-yl)methyl)amino)-7,8-dihydropteridin-6(511)-one], for which, in test [1], the concentration for half-maximal inhibition (IC50) is less than 300 nM. In addition, the “Percent Remaining Activity” value in test [2] came to 51%.

`Cc1nc(NCc2cnn(Cc3ccc(F)nc3)c2)nc2c1NC(=O)[C@H](C(C)(C)C)N2C` [Compound 437, (7S)-7-(tert-butyl)-2-(((1-((6-fluoropyridin-3-yl)methyl)-1H-pyrazol-4-yl)methyl)amino)-4,8-dimethyl-7,8-dihydropteridin-6(5H)-one]: the concentration for half-maximal inhibition (IC50) in test [1] (Homo sapiens, COLO 205, 5 h) was less than 300 nM. Also, the “Percent Remaining Activity” value in test [2] was determined as 20%.
